What was measured:
MOR (μ opioid receptor) = target: T1, MOR (μ opioid receptor) (Homo sapiens, UniProt P35372); test: MOR radioligand binding ([3H]-DAMGO, HEK293 cell homogenates)
T1 construct: expressed in transfected cells; host or cells: HEK293

KOR (κ opioid receptor) = target: T2, KOR (κ opioid receptor) (Homo sapiens, UniProt P41145); test: KOR radioligand binding ([3H]-U69593, HEK293 cell homogenates)
T2 construct: expressed in transfected cells; host or cells: HEK293 (stably transfected)

DOR (δ opioid receptor) = target: T3, DOR (δ opioid receptor) (Homo sapiens, UniProt P41143); test: DOR radioligand binding ([3H]-DADLE, HEK293 cell homogenates); conditions: Percent inhibition at 10,000 nM; [3H]-DADLE
T3 construct: expressed in transfected cells; host or cells: HEK293

Mouse microglia [1] = test: NO production (Griess assay), LPS/IFNγ-activated mouse microglia; type: cell-based; conditions: for inhibition at 10 µM / inhibition at 50 µM: Mus musculus, Microglia, 24 h
Experimental: (§1) Next, a library of GABAAR ligands was investigated to identify compounds that reduce the production of NO as a marker of anti-inflammatory activity. […] NO was quantified with a Greiss assay. Cell viability was determined with CellTiter-Glo.
Cell culture. A) HMC3 Microglia (CRL-3304) were maintained in treated cell culture flasks (Nunc, 156472) with EMEM (Corning, 10010CV) supplemented with 10% heat-inactivated FBS (Corning, 35011CV) and 100 U/mL penicillin and 100 μg/mL streptomycin (Hyclone, SV30010). Cultures were maintained at 37° C. and 5% CO2. When cells reached a density of 7×10^4 cells/mL, cultures were passaged with 0.25% Trypsin (Corning, 25-053-CI) and resuspended to a density no lower than 10,000 cells/mL. B) Human and mouse microglia cell lines were a gift from Dr. David Alvarez-Carbonell at Case Western Reserve University (Cleveland, OH). Microglia were cultured in cell culture treated flasks (Nunc, 156472) with DME/F12 media (Hyclone, SH30023.01) supplemented with 10% heat-inactivated FBS (Corning, 35011CV), 100 U/mL penicillin/100 μg/mL streptomycin (Hyclone, SV30010), and Normocin (Invivogen, ant-nr). Cultures were maintained at 37° C. and 5% CO2. […] Cultures were maintained at 37° C. and 5% CO2. Cells were passaged when they reached a density of approximately 3×10^6 cells/mL using cell scrapers (VWR, 10062-906) to lift cells from flask surface and resuspended at densities of approximately 500,000 cells/mL.
(§2) Nitric oxide production (Griess assay) and viability assay (CellTiter-Glo). 80 μL of mouse microglia culture (1×10^6 cells/mL) was plated into sterile 384 well plates representing non-activated wells. The remaining culture was activated with 50 ng/ml LPS (Invivogen, NC9836) and 150 U/mL IFNγ (R&D Systems, 485MI100) and distributed into the 384 well plates. […] Assay plates were incubated for approximately 24 hours (unless otherwise noted) at 37° C., centrifuged, and 40 μL of supernatant transferred to a new plate for analysis using the Griess Assay (Promega, Madison, WI). Absorbance at 530 nm was measured using a TECAN Infinite M1000 plate reader. The remaining 40 μL containing cells was analyzed for toxicity by the CellTiter-Glo Assay (Promega, Madison, WI). Luminescence was read using a TECAN Infinite M1000 plate reader.

Mouse microglia [2] = test: Cell viability (CellTiter-Glo), mouse microglia; type: cell-based; conditions: 50 μM, CellTiter-Glo
Experimental: as §1, §2

[3] = test system: BZR (benzodiazepine site of GABAAR); test: GABAAR/BZR binding, rat brain homogenate with 3H-flunitrazepam; conditions: rat brain homogenate, 3H-flunitrazepam; for BZR %: Percent inhibition at 10,000 nM
In short: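 Rat brain homogenate incubated with 3H-flunitrazepam near its Kd, typically 90 min at room temperature in the dark; nonspecific binding defined with 10 μM reference compound. Filtration on PEI-soaked mats, scintillation counting; compounds screened at 10,000 nM, those above 50% displacement taken to concentration–response for Ki by nonlinear regression (n=6).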

RAW macrophages [4] = test: NO production (Griess assay), LPS/IFNγ-activated RAW264.7 macrophages; type: cell-based, mouse
RAW macrophages [5] = test: Cell viability (CellTiter-Glo), RAW macrophages; type: cell-based, mouse; conditions: CellTiter-Glo
HEK293 = test: Viability assay (CellTiter-Glo), HEK293; type: cell-based, human; conditions: 120 μM, CellTiter-Glo
Experimental: (§3) The screen identified several compounds that reduced NO in activated microglia and macrophages. The tested compounds included achiral and chiral imidazodiazepines and benzodiazepines. In general, microglia were more sensitive to compound treatment with more pronounced reduction of NO than macrophages. […] Cell viability assays with HEK293 (kidney) and HepG2 (liver) cells were conducted in a concentration dependent manner. A limited number of compounds, such as GL-III-63, GL-III-76A, and GL-III-77, were toxic at 120 μM.
(§4) Viability assay. Human liver hepatocellular carcinoma (HEPG2) and human embryonic kidney 293T (HEK293T) cell lines were purchased (ATCC) and cultured in 75 cm^2 flasks (CellStar). Cells were grown in DMEM/High Glucose (Hyclone, #SH3024301) media to which non-essential amino acids (Hyclone, #SH30238.01), 10 mM HEPES (Hyclone, #SH302237.01), 5×10^6 units of penicillin and streptomycin (Hyclone, #SV30010), and 10% of heat inactivated fetal bovine serum (Gibco, #10082147) were added. Cells were harvested using 0.05% Trypsin (Hyclone, #SH3023601), washed with PBS, and dispensed into sterile white, optical bottom 384-well plates (NUNC, #142762). After three hours, small molecule DMSO solutions were transferred with a Tecan Freedom EVO liquid handling system equipped with a 100 nL pin tool (V&P Scientific). The controls were 3-dibutylamino-1-(4-hexyl-phenyl)-propan-1-one (25 mM in DMSO, positive control) and DMSO (negative control). The cells were incubated for 48 hours followed by the addition of CellTiter-Glo™, a luminescence-based cell viability assay (Promega, Madison, WI). All luminescence readings were performed on a Tecan Infinite M1000 plate reader. The assay was carried out in quadruplet with two independent runs. The data were analyzed by nonlinear regression.

HEPG2 = test: Viability assay (CellTiter-Glo), HEPG2; type: cell-based, human; conditions: 120 μM, CellTiter-Glo
Experimental: as §3, §4

[6] = Percent inhibition at 10,000 nM, [3H]-DAMGO
[7] = Percent inhibition at 10,000 nM, [3H]-U69593
[8] = 10 μM, 24 hours, 1 μM GABA, LPS/IFNγ

T1 sequence (P35372 whole entry, species assumed): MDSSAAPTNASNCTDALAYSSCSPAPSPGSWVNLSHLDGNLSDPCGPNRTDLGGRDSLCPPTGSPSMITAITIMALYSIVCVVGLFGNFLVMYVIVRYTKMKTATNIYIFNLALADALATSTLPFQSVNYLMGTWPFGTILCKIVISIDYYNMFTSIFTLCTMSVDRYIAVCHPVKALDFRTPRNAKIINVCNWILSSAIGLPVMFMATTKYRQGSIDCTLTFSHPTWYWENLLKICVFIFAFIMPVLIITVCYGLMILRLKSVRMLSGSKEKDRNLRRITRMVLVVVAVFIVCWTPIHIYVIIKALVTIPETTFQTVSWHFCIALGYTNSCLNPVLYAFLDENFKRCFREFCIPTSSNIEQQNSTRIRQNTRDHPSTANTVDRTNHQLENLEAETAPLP
T2 sequence (P41145 whole entry): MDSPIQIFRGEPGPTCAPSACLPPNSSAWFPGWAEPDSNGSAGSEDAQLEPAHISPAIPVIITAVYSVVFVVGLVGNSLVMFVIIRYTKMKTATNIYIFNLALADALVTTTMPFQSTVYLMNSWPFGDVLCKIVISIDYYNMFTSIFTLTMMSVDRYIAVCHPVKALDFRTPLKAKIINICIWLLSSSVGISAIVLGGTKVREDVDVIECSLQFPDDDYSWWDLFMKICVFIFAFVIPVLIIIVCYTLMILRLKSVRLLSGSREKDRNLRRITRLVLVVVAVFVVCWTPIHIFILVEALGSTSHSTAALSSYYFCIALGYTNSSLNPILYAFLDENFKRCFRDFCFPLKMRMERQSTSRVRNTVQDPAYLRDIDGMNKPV
T3 sequence (P41143 whole entry): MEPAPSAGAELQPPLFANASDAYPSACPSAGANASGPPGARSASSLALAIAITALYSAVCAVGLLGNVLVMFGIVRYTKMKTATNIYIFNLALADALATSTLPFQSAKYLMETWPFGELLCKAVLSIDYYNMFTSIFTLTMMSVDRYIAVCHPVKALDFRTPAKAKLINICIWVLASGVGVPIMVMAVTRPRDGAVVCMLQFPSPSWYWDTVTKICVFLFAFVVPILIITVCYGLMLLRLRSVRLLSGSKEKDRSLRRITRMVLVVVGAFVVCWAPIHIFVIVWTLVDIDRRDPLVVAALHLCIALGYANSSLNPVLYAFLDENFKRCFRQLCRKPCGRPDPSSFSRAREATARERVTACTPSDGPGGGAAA

Structure (SMILES)	inhibition at 10 µM (MOR (μ opioid receptor); [6])	inhibition at 10 µM (KOR (κ opioid receptor); [7])	inhibition at 10 µM (DOR (δ opioid receptor))	Cell viability (%) Mouse microglia 50 μM (Mouse microglia [2])	BZR % [3]	Ki [3]	Cell viability (%) RAW macrophages 50 μM (RAW macrophages [5])	Cell viability (%) HEK293 120 μM (HEK293)	Cell viability (%) HEPG2 120 μM (HEPG2)	Inhibition of NO production (%) Mouse microglia 50 μM (Mouse microglia [1]; 24 hours, 1 μM GABA, LPS/IFNγ)	also measured
C#Cc1ccc2c(c1)C(c1ccccc1F)=N[C@@H](C)c1c(-c3nc(C(C)C)no3)ncn1-2 [GL-I-81, (S)-5-(8-Ethynyl-6-(2-fluorophenyl)-4-methyl-4H-benzo[f]imidazo[1,5-a][1,4]diazepin-3-yl)-3-isopropyl-1,2,4-oxadiazole]	64%	93%	25%	94 ± 10%	83%	839 nM	91 ± 7%	–	–	–	Ki (MOR (μ opioid receptor)): 2920 nM; Ki (KOR (κ opioid receptor)): 127 nM; inhibition at 10 µM (Mouse microglia [1]): 64 ± 9%; inhibition at 50 µM (Mouse microglia [1]): 87 ± 2%; inhibition at 10 µM (RAW macrophages [4]; Mus musculus, Macrophage, 24 h): 0%; inhibition at 50 µM (RAW macrophages [4]; Mus musculus, Macrophage, 24 h): 6 ± 2%
C#Cc1ccc2c(c1)C(c1ccccn1)=N[C@H](C)c1c(C(=O)OCC)ncn1-2 [GL-II-19]	17%	44%	2%	100 ± 11%	71%	1140 nM	–	90 ± 5%	100 ± 9%	–	inhibition at 10 µM (Mouse microglia [1]): 32 ± 4%; inhibition at 10 µM (RAW macrophages [4]; Mus musculus, Macrophage, 24 h): 2 ± 2%
C#Cc1ccc2c(c1)C(c1ccccn1)=N[C@H](C)c1c(C(=O)OC)ncn1-2 [GL-II-32]	32%	35%	0%	95 ± 8%	63%	1430 nM	100 ± 4%	80 ± 6%	–	–	inhibition at 10 µM (Mouse microglia [1]): 7 ± 2%; inhibition at 10 µM (RAW macrophages [4]; Mus musculus, Macrophage, 24 h): 6 ± 3%
C#Cc1ccc2c(c1)C(c1ccccn1)=NC(C)c1c(-c3nc(C)no3)ncn1-2 (centres unmarked) [GL-II-33]	–	–	–	100 ± 4%	–	–	100 ± 7%	–	–	0 ± 3%	NO production of activated microglia (in words) (Mouse microglia [1]; dexamethasone 100 nM, GABA 1 μM, MP-IV-010 50 μM, GL-II-33 in the library screen): did not reduce NO production
C#Cc1ccc2c(c1)C(c1ccccn1)=N[C@H](C)c1c(-c3nc(CC)no3)ncn1-2 [GL-II-54]	0%	80%	0%	95 ± 3%	66%	2040 nM	100 ± 8%	–	–	–	Ki (KOR (κ opioid receptor)): 504 nM; inhibition at 50 µM (Mouse microglia [1]): 0%
C#Cc1ccc2c(c1)C(c1ccccn1)=NCc1c(C(=O)O)ncn1-2 [GL-III-13]	–	–	–	92 ± 9%	–	–	100 ± 9%	74 ± 5%	100 ± 10%	–	Inhibition of NO production (%) RAW macrophages 10 μM (RAW macrophages [4]; [8]): 0 ± 2%
C#Cc1ccc2c(c1)C(c1ccccc1F)=NCc1c(-c3nc(C)no3)ncn1-2 [GL-III-23]	–	–	–	100 ± 2%	–	–	–	65 ± 5%	90 ± 13%	28 ± 5%	–
C#Cc1ccc2c(c1)C(c1ccccn1)=NCC(=O)N2 [GL-III-58]	–	–	–	83 ± 4%	–	–	100 ± 14%	89 ± 2%	100 ± 5%	–	Inhibition of NO production (%) Mouse microglia 10 μM (Mouse microglia [1]; [8]): 48 ± 4%
Cc1noc(-c2ncn3c2[C@@H](C)N=C(c2ccccn2)c2cc(C4CC4)ccc2-3)n1 [GL-III-64]	7%	60%	14%	96 ± 10%	92%	1490 nM	–	75 ± 8%	75 ± 10%	–	Ki (KOR (κ opioid receptor)): 2050 nM; inhibition at 50 µM (Mouse microglia [1]): 26 ± 10%
C#Cc1ccc2c(c1)C(c1ccccn1)=NCc1c(-c3cnco3)ncn1-2 [KRM-II-81]	–	–	–	100 ± 5%	86%	294 nM	–	96 ± 11%	100 ± 12%	0 ± 1%	MOR % (MOR (μ opioid receptor); [6]): 7%; KOR % (KOR (κ opioid receptor); [7]): 46%; DOR % (DOR (δ opioid receptor)): 15%
C#Cc1ccc2c(c1)C(c1ccccc1)=NCc1c(C(=O)NC)ncn1-2 [YT-III-31]	–	–	–	100 ± 8%	–	–	–	96 ± 10%	100 ± 7%	0 ± 2%	–

Source: patent US20240279232A1, “USE OF SUBSTITUTED 5-(4-METHYL-6-PHENYL-4H-BENZO[F]IMIDAZO[1,5-A][1,4] DIAZEPIN-3-YL)-1,2,4-O[…] THE TREATMENT OF INFLAMMATORY CONDITIONS” (priority 2021, published 2024)
